Test results taken from patent US5603951A, “Cyclosporin-containing soft capsule compositions” (Hanmi Pharm. Ind. Co., Ltd., priority 1994, dated 1997).

Assay: Change in cosurfactant content of soft capsules over storage at room temperature (membrane permeation, gas chromatography)
Format: physicochemical
Experimental: The content of the cosurfactant in each soft capsule preparation was analyzed by gas chromatography.
Conditions of gas chromatography for each cosurfactant
Column: Ultra 2 (Crosslinked 2% phenylmethyl silicone gun phase, 25 m
× 0.32 mm, thickness 0.52 μm)
Column temperature: 230° C. (Isothermal)
Detector: FID (Temperature: 270° C.)
Injection temperature: 275° C.
Carrier gas: He (Partition ratio 80:1)
Internal standard: Octyl alcohol
Column: HP20M (Carbowax 20M) (25 m × 0.32 mm, film thickness 0.3
Column temperature: 30° C. (Isothermal)
Detector: FID (Temperature: 200° C.)
Injection temperature: 150° C.
Internal standard: Diethyl ether

Structure (SMILES)	Change of cosurfactant content in soft capsule after 10 days (in words)	Cosurfactant content reduced by, of the initial content, after 10 days (soft capsule)
CO[C@H]1CO[C@H]2[C@@H]1OC[C@H]2OC [dimethylisosorbide]	does not change in its content	
CCO [ethanol]		27.8%
